Assay results: patent publication US20080200531A1, “CDKI pathway inhibitors as inhibitors of tumor cell growth” (priority 2006, published 2008)
Like-named read-outs stand apart in the source and are kept apart here.

How the values were obtained:
[1] = test system: p21-responsive genes (IPTG-induced p21); assay: Affymetrix U133 2.0 Plus microarray analysis of p21-responsive genes in HT1080 p21-9; format: cell-based, human; details: for fold induction at 20 µM: Homo sapiens, HT-1080, 72 h
Method: HT1080 p21-9 cell line, which carries IPTG-inducible CDKI p21, was either untreated, or treated for 72 hrs with 100 μM IPTG (which induces p21), or with CDKI pathway inhibitors SNX9-1 (20 μM, SNX9 family) or SNX14 (80 μM, unrelated to SNX9) alone or in combination with IPTG. RNA was extracted after each treatment and used for hybridization with Affymetrix U133 2.0 Plus microarrays, containing 56,000 probe sets corresponding to essentially all the human genes. The microarray data were analyzed using Gene Spring software (Agilent). […] The first group (p21-induced genes, top panels) represents 1124 probe sets corresponding to genes that were induced at least 2-fold upon treatment with p21-inducing IPTG. The second group (p21-inhibited genes, bottom panels) represents 435 probe sets corresponding to genes that were inhibited at least 4-fold upon IPTG treatment. […] The left panels show the response of the two groups of genes to IPTG (p21 induction) in the absence of SNX9-class compounds, with the first group induced and the second group inhibited by IPTG. The middle panels show the response of the same genes to IPTG in the presence of SNX9-1 or SNX14 (added with or without IPTG). Both the induction and the inhibition of gene expression by IPTG appear much reduced in the presence of SNX9-1 or SNX14, as expected from their activity as CDKI pathway inhibitors.

[2] = test system: HCT116 colon carcinoma; assay: 3-day growth inhibition assay (Hoechst 33342), HCT116; format: cell-based; details: Homo sapiens, HCT-116, 72 h, 3 days, read-out: growth inhibition (decrease in cell number relative to untreated cells)
Method: (§1) The assays were carried out in 96-well plates, in triplicates; the plated cell numbers for each cell line were determined in preliminary experiments to assure exponential growth over the 3-day period of the assay. The cell numbers were measured by staining DNA of attached cells with Hoechst 33342, and the results for each dose were expressed as the decrease in cell number relative to untreated cells. For some of the tumor/normal cell line combinations, the assays were repeated using CellTiter-Glo viability assay (Promega), with the same results.

[3] = test system: HMEC primary cultures, MCF-7 and MDA231; assay: 3-day growth inhibition assay (Hoechst 33342), normal mammary epithelial cells vs breast carcinoma lines; details: 3-day assay; HMEC vs MCF-7 and MDA231
Method: as §1

[4] = test system: normal fibroblasts (WI-38, BJ-EN); assay: 3-day growth inhibition assay (Hoechst 33342), normal cells; format: cell-based, human; details: 5 μM; 3 days
Method: as §1

[5] = test system: NFκB p50 and p65 subunits; assay: TransAM NFκB p65 and p50 Chemi Transcription Factor Assay (oligonucleotide binding); format: cell-based; details: TNFα-induced or basal
Text: We also tested if these compounds could act as the inhibitors of NFκB, by measuring cellular levels of p50 or p65 subunits binding oligonucleotides containing NFκB consensus binding site, using ACTIVE MOTIF TransAM™ NFκB p65 Chemi and NFκB p50 Chemi Transcription Factor Assay Kits.

[6] = test system: HT1080 fibrosarcoma; assay: 3-day growth inhibition assay (Hoechst 33342), HT1080; format: cell-based; details: Homo sapiens, HT-1080, 72 h, 3 days, read-out: growth inhibition (decrease in cell number relative to untreated cells)
Method: as §1

[7] = test system: HT1080 p21-9 cells; assay: FACS analysis of DNA content and GF7 mitotic staining; format: cell-based, human
Text: The combination of p21 and SNX9-class compounds leads to both G1 and G2/M arrest, at the levels expected for the combined effects of p21 and SNX9 (FIG. 6).

[8] = test system: p21-induced transcription from the NK4 promoter; assay: NK4 promoter-firefly luciferase reporter in HT1080 p21-9 cells; format: cell-based, human; details: 20 μM SNX-9
Method: In this experiment, HT1080 p21-9 cells that express firefly luciferase from a CDKI-responsive promoter of cellular NK4 gene were cultured with IPTG for two days, which is sufficient for near-maximal induction of NK4 (Poole et al., supra).

[9] = SNX9-1 20 μM, SNX14 80 μM, 72 hrs

Compound: NCCc1c[nH]c2c(Cl)cc(Cl)cc12 [SNX9-1]
- fold induction at 20 µM ([1]; read-out: Fold induction by IPTG, CD44, probe 212063_at, SNX14 80 μM, SNX9-1 20 μM, control 1.21): 1.03
- fold induction at 20 µM ([1]; read-out: Fold induction by IPTG, CLTB, probe 211043_s_at, SNX14 80 μM, SNX9-1 20 μM, control 1.32): 0.95
- fold induction at 20 µM ([1]; read-out: Fold induction by IPTG, FLJ13111, probe 218148_at, SNX14 80 μM, SNX9-1 20 μM, control 1.27): 0.98
- fold induction at 20 µM ([1]; read-out: Fold induction by IPTG, KRT8, probe 209008_x_at, SNX14 80 μM, SNX9-1 20 μM, control 1.97): 0.81
- fold induction at 20 µM ([1]; read-out: Fold induction by IPTG, LGALS3, probe 208949_s_at, SNX14 80 μM, SNX9-1 20 μM, control 3.74): 1.33
- fold induction at 20 µM ([1]; read-out: Fold induction by IPTG, NK4, probe 203828_s_at, SNX14 80 μM, SNX9-1 20 μM, control 7.22): 1.6
- fold induction at 20 µM ([1]; read-out: Fold induction by IPTG, SLC22A18, probe 204981_at, SNX14 80 μM, SNX9-1 20 μM, control 2.46): 1.34
- fold induction at 20 µM ([1]; read-out: Fold induction by IPTG, SPTBN1, probe 212071_s_at, SNX14 80 μM, SNX9-1 20 μM, control 1.24): 1.24
- fold induction at 20 µM ([1]; read-out: Fold induction by IPTG, SPTBN1, probe 226765_at, SNX14 80 μM, SNX9-1 20 μM, control 1.21): 1.09
- induction and inhibition of gene expression by IPTG in the presence of compound (1124 p21-induced, 435 p21-inhibited probe sets) [1, 9]: much reduced
- induction by p21 of genes that are markers of cancer intractability [1, 9]: inhibited their induction
- response of p21-induced and p21-inhibited genes to compound in the absence of IPTG ([1]; SNX9-1 20 μM, SNX14 80 μM, 72 hrs, weaker than IPTG): most of p21-induced genes are induced by SNX9-1 and SNX14 and most of p21-inhibited genes are inhibited

Compound: Cc1[nH]c2c(Cl)cccc2c1CCN [SNX9]
- inhibition at 5 µM [2]: ~100%
- tumor selectivity of growth inhibition, normal vs transformed mammary cells [3]: clear tumor selectivity
- growth inhibition of normal cells [4]: no effect on normal cells
- NFκB activity (p50 or p65 binding to NFκB consensus oligonucleotide) [5]: no significant effect
- inhibition at 5 µM [6]: ~100%
- mitotic fraction (GF7 antibody staining) ([7]; SNX9-treated cells): increase in the mitotic fraction
- G2/M fraction (FACS analysis of DNA content) ([7]; SNX9 alone): pronounced increase in the G2/M fraction
- induction of NK4-luciferase by p21, compound added after two days of IPTG treatment (reversal) [8]: reverses CDKI-induced transcription
- induction of NK4-luciferase by p21, compound added simultaneously with IPTG [8]: decreased the induction of NK4-luciferase by p21
